Data published in PubChem BioAssay AID2060625 (Molecular Pharmacology Branch, DTP, NCI, 2025).

Tested on: 186277-243-T-J2-PDC spheroids with HUVEC/MSC, viability
Test: Anticancer human tumor 186277-243-T-J2-PDC patient-derived colon adenocarcinoma cell line growth inhibition [CLK]
Conditions: second compound 0.1 µM; first compound 1 µM; active compounds read low
Outline: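 Patient-derived tumor cells grown as complex spheroids with HUVEC endothelial cells and mesenchymal stem cells, treated with drug combinations. Concentrations descend in half-log steps from near clinical Cmax, or from 10 microM if Cmax unknown.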
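Note: compound exposure lasted seven days before readout; 100% = DMSO vehicle control wells.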

First: Nc1ccn(C2OC(CO)C(O)C2(F)F)c(=O)n1 (configuration not stated) + CNC(=O)c1ccc(Nc2nc(OC3CCCC3)c3c(-c4ccc5nc(C)oc5c4)c[nH]c3n2)c(OC)c1
Second: CC(Nc1ccc2c(c1)OCCn1cc(N3C(=O)OCC3C(F)F)nc1-2)C(N)=O (configuration not stated) + CNC(=O)c1ccc(Nc2nc(OC3CCCC3)c3c(-c4ccc5nc(C)oc5c4)c[nH]c3n2)c(OC)c1
The viability, T/C of the first is lower: 13.3% for the first, 29.4% for the second.

Compared with O=c1[nH]cc(F)c(=O)[nH]1 + CNC(=O)c1ccc(Nc2nc(OC3CCCC3)c3c(-c4ccc5nc(C)oc5c4)c[nH]c3n2)c(OC)c1, Nc1ccccc1NC(=O)c1ccc(CNC(=O)OCc2cccnc2)cc1 + CNC(=O)c1ccc(Nc2nc(OC3CCCC3)c3c(-c4ccc5nc(C)oc5c4)c[nH]c3n2)c(OC)c1 is higher in viability, T/C: 61.5% for the first, 104% for the second.

Same assay, conditions: second compound 0.1 µM; first compound 3.16 µM; active compounds read low

Compared with Nc1ccn(C2OC(CO)C(O)C2(F)F)c(=O)n1 (configuration not stated) + CNC(=O)c1ccc(Nc2nc(OC3CCCC3)c3c(-c4ccc5nc(C)oc5c4)c[nH]c3n2)c(OC)c1, CC(Nc1ccc2c(c1)OCCn1cc(N3C(=O)OCC3C(F)F)nc1-2)C(N)=O (configuration not stated) + CNC(=O)c1ccc(Nc2nc(OC3CCCC3)c3c(-c4ccc5nc(C)oc5c4)c[nH]c3n2)c(OC)c1 is higher in viability, T/C: 14.8% for the first, 20.1% for the second.

Going from O=c1[nH]cc(F)c(=O)[nH]1 + CNC(=O)c1ccc(Nc2nc(OC3CCCC3)c3c(-c4ccc5nc(C)oc5c4)c[nH]c3n2)c(OC)c1 to Nc1ccccc1NC(=O)c1ccc(CNC(=O)OCc2cccnc2)cc1 + CNC(=O)c1ccc(Nc2nc(OC3CCCC3)c3c(-c4ccc5nc(C)oc5c4)c[nH]c3n2)c(OC)c1, the viability, T/C falls from 58.1% to 39.8%.

Same assay, conditions: second compound 0.1 µM; first compound 10 µM; active compounds read low

Compared with Nc1ccn(C2OC(CO)C(O)C2(F)F)c(=O)n1 (configuration not stated) + CNC(=O)c1ccc(Nc2nc(OC3CCCC3)c3c(-c4ccc5nc(C)oc5c4)c[nH]c3n2)c(OC)c1, CC(Nc1ccc2c(c1)OCCn1cc(N3C(=O)OCC3C(F)F)nc1-2)C(N)=O (configuration not stated) + CNC(=O)c1ccc(Nc2nc(OC3CCCC3)c3c(-c4ccc5nc(C)oc5c4)c[nH]c3n2)c(OC)c1 is higher in viability, T/C: 12.4% for the first, 14.7% for the second.

First: O=c1[nH]cc(F)c(=O)[nH]1 + CNC(=O)c1ccc(Nc2nc(OC3CCCC3)c3c(-c4ccc5nc(C)oc5c4)c[nH]c3n2)c(OC)c1
Second: Nc1ccccc1NC(=O)c1ccc(CNC(=O)OCc2cccnc2)cc1 + CNC(=O)c1ccc(Nc2nc(OC3CCCC3)c3c(-c4ccc5nc(C)oc5c4)c[nH]c3n2)c(OC)c1
The viability, T/C of the first is higher: 42.1% for the first, 4.98% for the second.

Same assay, conditions: second compound 0.316 µM; first compound 0.000316 µM; active compounds read low

Cn1ncnc1[C@H]1c2n[nH]c(=O)c3cc(F)cc(c23)N[C@@H]1c1ccc(F)cc1 + CN1CCN(c2cc(C(=O)Nc3cc4cc(-c5cnn(C)c5)ccc4cn3)ccn2)CC1 gave a viability, T/C of 20.9%.

Same assay, conditions: second compound 0.316 µM; first compound 0.001 µM; active compounds read low

Compound Cn1ncnc1[C@H]1c2n[nH]c(=O)c3cc(F)cc(c23)N[C@@H]1c1ccc(F)cc1 + CN1CCN(c2cc(C(=O)Nc3cc4cc(-c5cnn(C)c5)ccc4cn3)ccn2)CC1 has a viability, T/C of 19.2%.

Same assay, conditions: second compound 0.316 µM; first compound 0.00316 µM; active compounds read low

Work on Cn1ncnc1[C@H]1c2n[nH]c(=O)c3cc(F)cc(c23)N[C@@H]1c1ccc(F)cc1 + CN1CCN(c2cc(C(=O)Nc3cc4cc(-c5cnn(C)c5)ccc4cn3)ccn2)CC1 yielded a viability, T/C of 22.7%.

Same assay, conditions: second compound 0.316 µM; first compound 0.01 µM; active compounds read low

For Cn1ncnc1[C@H]1c2n[nH]c(=O)c3cc(F)cc(c23)N[C@@H]1c1ccc(F)cc1 + CN1CCN(c2cc(C(=O)Nc3cc4cc(-c5cnn(C)c5)ccc4cn3)ccn2)CC1, the viability, T/C was 20%.

Same assay, conditions: second compound 0.316 µM; first compound 0.0316 µM; active compounds read low

First: Nc1ccn(C2OC(CO)C(O)C2(F)F)c(=O)n1 (configuration not stated) + CNC(=O)c1ccc(Nc2nc(OC3CCCC3)c3c(-c4ccc5nc(C)oc5c4)c[nH]c3n2)c(OC)c1
Second: CC(Nc1ccc2c(c1)OCCn1cc(N3C(=O)OCC3C(F)F)nc1-2)C(N)=O (configuration not stated) + CNC(=O)c1ccc(Nc2nc(OC3CCCC3)c3c(-c4ccc5nc(C)oc5c4)c[nH]c3n2)c(OC)c1
The viability, T/C of the first is lower: 9.79% for the first, 30.4% for the second.

Compared with O=c1[nH]cc(F)c(=O)[nH]1 + CNC(=O)c1ccc(Nc2nc(OC3CCCC3)c3c(-c4ccc5nc(C)oc5c4)c[nH]c3n2)c(OC)c1, Cn1ncnc1[C@H]1c2n[nH]c(=O)c3cc(F)cc(c23)N[C@@H]1c1ccc(F)cc1 + CN1CCN(c2cc(C(=O)Nc3cc4cc(-c5cnn(C)c5)ccc4cn3)ccn2)CC1 is lower in viability, T/C: 43.7% for the first, 21.9% for the second.

With Nc1ccccc1NC(=O)c1ccc(CNC(=O)OCc2cccnc2)cc1 + CNC(=O)c1ccc(Nc2nc(OC3CCCC3)c3c(-c4ccc5nc(C)oc5c4)c[nH]c3n2)c(OC)c1 the viability, T/C was 53.6%.

Same assay, conditions: second compound 0.316 µM; first compound 0.1 µM; active compounds read low

First: Nc1ccn(C2OC(CO)C(O)C2(F)F)c(=O)n1 (configuration not stated) + CNC(=O)c1ccc(Nc2nc(OC3CCCC3)c3c(-c4ccc5nc(C)oc5c4)c[nH]c3n2)c(OC)c1
Second: CC(Nc1ccc2c(c1)OCCn1cc(N3C(=O)OCC3C(F)F)nc1-2)C(N)=O (configuration not stated) + CNC(=O)c1ccc(Nc2nc(OC3CCCC3)c3c(-c4ccc5nc(C)oc5c4)c[nH]c3n2)c(OC)c1
The viability, T/C of the first is lower: 9.9% for the first, 24.3% for the second.

Compared with O=c1[nH]cc(F)c(=O)[nH]1 + CNC(=O)c1ccc(Nc2nc(OC3CCCC3)c3c(-c4ccc5nc(C)oc5c4)c[nH]c3n2)c(OC)c1, Cn1ncnc1[C@H]1c2n[nH]c(=O)c3cc(F)cc(c23)N[C@@H]1c1ccc(F)cc1 + CN1CCN(c2cc(C(=O)Nc3cc4cc(-c5cnn(C)c5)ccc4cn3)ccn2)CC1 is lower in viability, T/C: 43.6% for the first, 19.8% for the second.

With Nc1ccccc1NC(=O)c1ccc(CNC(=O)OCc2cccnc2)cc1 + CNC(=O)c1ccc(Nc2nc(OC3CCCC3)c3c(-c4ccc5nc(C)oc5c4)c[nH]c3n2)c(OC)c1 the viability, T/C was 60.2%.

Same assay, conditions: second compound 0.316 µM; first compound 0.316 µM; active compounds read low

For Nc1ccn(C2OC(CO)C(O)C2(F)F)c(=O)n1 (configuration not stated) + CNC(=O)c1ccc(Nc2nc(OC3CCCC3)c3c(-c4ccc5nc(C)oc5c4)c[nH]c3n2)c(OC)c1, the viability, T/C was 9.39%.
